In US20180057505A1, “BICYCLIC HETEROARYL COMPOUNDS USEFUL AS INHIBITORS OF THE PAR-2 SIGNALING PATHWAY” (VERTEX PHARMACEUTICALS INCORPORATED, priority 2015, published 2018):

Tests used:
Format in all cases: cell-based
[1] = molecular target: T1, PAR2 (HT-29 cells) (Homo sapiens, UniProt P55085); assay: Ca FLIPR TETRA assay, ANTAGONIST mode, activator 8 μM SLIGKV; settings: HT-29 cells, activator 8 μM SLIGKV; maximal antagonist concentration per Method (A: 0.1, 1 or 2 μM; B: 50 μM)
T1 construct: host or cells: HT-29
T1 sequence (P55085 26-397): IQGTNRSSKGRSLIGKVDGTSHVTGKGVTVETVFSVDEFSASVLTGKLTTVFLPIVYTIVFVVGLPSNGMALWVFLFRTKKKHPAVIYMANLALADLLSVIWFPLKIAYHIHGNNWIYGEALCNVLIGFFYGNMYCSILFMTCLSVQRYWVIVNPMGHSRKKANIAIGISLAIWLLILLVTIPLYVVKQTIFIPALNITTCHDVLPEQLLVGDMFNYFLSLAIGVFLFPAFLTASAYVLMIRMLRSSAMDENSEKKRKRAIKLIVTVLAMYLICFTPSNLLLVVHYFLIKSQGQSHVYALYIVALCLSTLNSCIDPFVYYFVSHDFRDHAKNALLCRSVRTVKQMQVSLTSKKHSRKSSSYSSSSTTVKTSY
Outline: (§1)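 Inhibition of agonist-evoked calcium signals was measured in human HT-29 colon cells cultured overnight in 1% FBS McCoy's medium. Test compounds preincubated 30 min at r.t.; activators at final concentrations as stated for each readout.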

[2] = molecular target: T1, PAR2 (HT-29 cells); assay: Ca FLIPR TETRA assay, ANTAGONIST mode, activator 3.1 U/mL trypsin; settings: for IC50: HT-29 cells, activator 3.1 U/mL trypsin, maximal antagonist concentration per Method (A: 0.1, 1 or 2 μM; B: 50 μM)
Outline: as §1

[3] = test system: Thrombin-stimulated Ca2+ response in HT-29 cells; assay: Ca FLIPR TETRA assay, ANTAGONIST mode, activator 1 U/mL Thrombin; settings: Homo sapiens; HT-29 cells, activator 1 U/mL Thrombin
Outline: as §1

[4] = test system: UTP-stimulated Ca2+ response in HT-29 cells; assay: Ca FLIPR TETRA assay, ANTAGONIST mode, activator 0.6 μM UTP; settings: Homo sapiens; for IC50: HT-29 cells, activator 0.6 μM UTP; for inhibition at 50 µM: HT-29
Outline: as §1

Structure (SMILES) | IC50 [1] [nM] | IC50 [2] [nM] | IC50 [3] [nM] | IC50 [4] [nM] | inhibition at 50 µM [4] [%] | Trypsin, % @ 50 ([2]; @ 50 (μM)) [% @ 50]
CC(C)c1cc(-c2ccc(F)cc2)nc2cc(C(=O)N3CCN(C(=O)C(C)(C)O)C[C@H]3C)oc12 [Example I-101] | 7600 | 9100 | 18000 | 13000 |  | 
CC(C)c1cc(-c2ccc(F)cc2)nc2cc(C(=O)N3CCN(C(=O)C4(O)CCC4)C[C@@H]3C)oc12 [Example I-102] | 4700 | 5200 | 16000 | 5400 |  | 
CC(C)c1cc(-c2ccc(F)cc2)nc2cc(C(=O)N3CCN(C(=O)[C@@H](C)O)C[C@@H]3C)oc12 [Example I-103] | 7900 | 8500 | 29000 | 24000 |  | 
CC(C)c1cc(-c2ccc(F)cc2)nc2cc(C(=O)N3CCN(C(=O)[C@H](O)CC(C)(C)C)C[C@@H]3C)oc12 [Example I-104] | 730 | 830 | 2600 |  | 64 | 
CC(C)c1cc(-c2ccc(F)cc2)nc2cc(C(=O)N3CCN(C(=O)C4(O)CCOCC4)C[C@@H]3C)oc12 [Example I-105] | 8700 | 7700 | 12000 | 15000 |  | 
CC(C)c1cc(-c2ccc(F)cc2)nc2cc(C(=O)N3CCN(C(=O)C(C)(C)O)C[C@@H]3C)oc12 [Example I-106] | 7800 | 7700 | 15000 | 14000 |  | 
CCCS(=O)(=O)N1CCN(C(=O)c2cc3nc(-c4ccc(F)cc4)cc(C4(C)CC4)c3o2)C(C)(C)C1 [Example I-107] | 34 | 28 | > 50000 | > 50000 |  | 
CCOC(=O)N1CCN(C(=O)c2cc3nc(-c4ccc(F)cc4)cc(C4(C)CC4)c3o2)C(C)(C)C1 [Example I-108] | 2.2 | 1.8 | > 50000 | > 50000 |  | 
C[C@H]1CN(C(=O)c2cc3nc(-c4ccc(F)cc4)cc(C4(C)CC4)c3o2)CCN1C(=O)C(C)(C)O [Example I-109] | 2300 | 3400 | 12000 | 11000 |  | 
CC[C@@H](O)C(=O)N1CCN(C(=O)c2cc3nc(-c4ccc(F)cc4)cc(C4(C)CC4)c3o2)C[C@@H]1C [Example I-110] | 40 | 64 | 18000 | 14000 |  | 
C[C@H]1CN(C(=O)c2cc3nc(-c4ccc(F)cc4)cc(C4(C)CC4)c3o2)CCN1C(=O)C(O)C1CC1 (some centres unmarked) [Example I-111] | 56.5 | 41 | 19000 | 12000 |  | 
CC(C)[C@@H](O)C(=O)N1CCN(C(=O)c2cc3nc(-c4ccc(F)cc4)cc(C4(C)CC4)c3o2)C[C@@H]1C [Example I-112] | 13 | 27 | 13000 | 11000 |  | 
CC(C)C[C@@H](O)C(=O)N1CCN(C(=O)c2cc3nc(-c4ccc(F)cc4)cc(C4(C)CC4)c3o2)C[C@@H]1C [Example I-113] | 11 | 2 | 17000 | 12000 |  | 
C[C@H]1CN(C(=O)c2cc3nc(-c4ccc(F)cc4)cc(C4(C)CC4)c3o2)CCN1C(=O)C(O)c1ccc(F)cc1 (some centres unmarked) [Example I-114] | 2.2 | 2.7 | 27000 | 30000 |  | 
C[C@H]1CN(C(=O)c2cc3nc(-c4ccc(F)cc4)cc(C4(C)CC4)c3o2)CCN1C(=O)C1CCC1 [Example I-115] | 46 | 92 | > 50000 |  | 66 | 
C[C@H]1CN(C(=O)c2cc3nc(-c4ccc(F)cc4)cc(C4(C)CC4)c3o2)CCN1C(=O)C1CC1 [Example I-116] | 350 | 990 | 13000 | 6900 |  | 
C[C@H]1CN(C(=O)c2cc3nc(-c4ccc(F)cc4)cc(C4(C)CC4)c3o2)CCN1C(=O)C1(O)CC1 [Example I-117] | 1100 | 2300 | 12000 | 7700 |  | 
C[C@H]1CN(C(=O)c2cc3nc(-c4ccc(F)cc4)cc(C4(C)CC4)c3o2)CCN1C(=O)C1(C)CC1 [Example I-118] | 600 | 780 | 9800 | 6100 |  | 
C[C@H]1CN(C(=O)c2cc3nc(-c4ccc(F)cc4)cc(C4(C)CC4)c3o2)CCN1C(=O)C1(C#N)CC1 [Example I-119] | 620 | 560 | 1400 | 1600 |  | 

Structure (SMILES) | IC50 [1] [nM] | IC50 [2] [nM] | IC50 [3] [nM] | IC50 [4] [nM] | inhibition at 50 µM [4] [%] | Trypsin, % @ 50 ([2]; @ 50 (μM)) [% @ 50]
C[C@H]1CN(C(=O)c2cc3nc(-c4ccc(F)cc4)cc(C4(C)CC4)c3o2)CCN1C(=O)C1CCOCC1 [Example I-120] | 360 | 1300 | 13000 | 13000 |  | 
C[C@H]1CN(C(=O)c2cc3nc(-c4ccc(F)cc4)cc(C4(C)CC4)c3o2)CCN1C(=O)C1(O)CCOCC1 [Example I-121] | 1100 | 1800 | 5500 | 6300 |  | 
C[C@H]1CN(C(=O)c2cc3nc(-c4ccc(F)cc4)cc(C4(C)CC4)c3o2)CCN1C(=O)c1ccn[nH]1 [Example I-122] | 1000 | 330 | 1900 | 1600 |  | 
Cc1cc(C(=O)N2CCN(C(=O)c3cc4nc(-c5ccc(F)cc5)cc(C5(C)CC5)c4o3)C[C@@H]2C)n(C)n1 [Example I-123] | 340 | 930 | 4500 | 4100 |  | 
CC(C)c1nc(-c2ccc(F)cc2)nc2cc(C(=O)N3CCNC(=O)C3(C)C)oc12 [Example I-124] | 940 | 1900 | 24000 | 23000 |  | 
CC(C)c1nc(-c2ccc(F)cc2)nc2cc(C(=O)N3CCN(C(=O)[C@H](O)CC(C)(C)C)[C@@H](C)C3)oc12 [Example I-125] | 260 | 1900 | 32000 | 20000 |  | 
CC(C)c1nc(-c2ccc(F)cc2)nc2cc(C(=O)N3CCN(C(=O)[C@H](O)CC(C)(C)C)CC3(C)C)oc12 [Example I-126] | 110 | 67 | 13000 | 22000 |  | 
CC1(c2nc(-c3ccc(F)cc3)nc3cc(C(=O)N4CCNC(=O)C4(C)C)oc23)CC1 [Example I-127] | 740 |  | > 50000 | > 50000 |  | 49
C[C@H]1CN(C(=O)c2cc3nc(-c4ccc(F)cc4)nc(C4(C)CC4)c3o2)CCN1C(=O)[C@H](O)CC(C)(C)C [Example I-128] | 540 | 5300 | > 50000 | 44000 |  | 
CC(C)(C)C[C@@H](O)C(=O)N1CCN(C(=O)c2cc3nc(-c4ccc(F)cc4)nc(C4(C)CC4)c3o2)C(C)(C)C1 [Example I-129] | 250 | 270 | > 50000 | > 50000 |  | 
CC(C)c1cc(-c2ccc(F)cc2)nc2sc(C(=O)N3CCN(C(=O)[C@H](O)CC(C)(C)C)[C@@H](C)C3)nc12 [Example I-130] | 2100 | 2600 | > 35000 | 30000 |  | 
CC(C)c1cc(-c2ccc(F)cc2)nc2sc(C(=O)N3CCNC(=O)C3(C)C)nc12 [Example I-131] | 66 | 68 | 19000 | 12000 |  | 
CC(C)c1cc(-c2ccc(F)cc2)nc2sc(C(=O)N3CCN(C(=O)[C@H](O)CC(C)(C)C)CC3(C)C)nc12 [Example I-132] | 6.4 | 9 | > 50000 | > 50000 |  | 
CC(C)c1cc(-c2ccc(F)cc2)nc2oc(C(=O)N3CCNC(=O)C3(C)C)nc12 [Example I-133] | 5900 | 7500 | 20000 | 20000 |  | 
CC(C)c1cc(-c2ccc(F)cc2)nc2cc(C(=O)N3CCN(C(=O)[C@H]4C[C@](O)(C(F)(F)F)C4)CC3(C)C)oc12 [Example I-134] | 0.6 | 0.9 | > 1000 | > 1000 |  | 
CC(C)c1cc(-c2ccc(F)cc2)nc2cc(C(=O)N3CCN(C(=O)[C@H]4C[C@@H](O)C4)CC3(C)C)oc12 [Example I-135] | 24 | 42 | > 1000 | > 1000 |  | 
CC(C)c1cc(-c2ccc(F)cc2)nc2cc(C(=O)N3CCN(C(=O)[C@H]4C[C@@](C)(O)C4)CC3(C)C)oc12 [Example I-136] | 6.4 | 7.4 | > 1000 | > 1000 |  | 
CC(C)c1cc(-c2ccc(F)cc2)nc2cc(C(=O)N3CCN(C(=O)[C@H]4C[C@@](O)(C(F)(F)F)C4)CC3(C)C)oc12 [Example I-137] | 7.8 | 9.4 | 500 | 830 |  | 
Cc1cc(C(=O)N2CCN(C(=O)c3cc4nc(-c5ccc(F)cc5)cc(C(C)C)c4o3)C(C)(C)C2)on1 [Example I-138] | 2 | 2.2 | > 1000 | > 1000 |  | 
